Experimental data: paper PMC10221074, “Functional Profiling of the A-Family of Venom Peptides from the Wolf Spider Lycosa shansia” (Toxins, 2023)

Assays:
[1] = system: B/Malaysia/2506/2004 (B-Mal); format: cell-based, influenza virus
[2] = system: A/Hamburg/05/2009 (H1N1); format: cell-based, influenza virus
[3] = system: A/Hessen/1/2003 (H3N2); format: cell-based, influenza virus
[4] = system: G. mellonella larvae; assay: Insecticidal activity by injection into larvae; format: in vivo, Galleria mellonella
Experimental: Insecticidal activity was determined using fourth and fifth instar G. mellonella larvae (L4/L5) obtained from Fauna Topics Zoobedarf Zucht und Handels GmbH (Marbach am Neckar, Germany). Because spider venom is injected via chelicerae, we opted for an injection-based assay to reflect the natural process of envenomation as described earlier. The peptides were dissolved in a 1:1 mixture of DMSO and water to a final concentration of 10 mmol/L. We injected 50 ng of each peptide into the pseudopodium using Omnican-F, 0.30 × 12 mm/G 30 × 1/2”, a 1 mL syringe adjusted to a WPI manual microsyringe injector setup. Injections with water, DMSO/water (1:1) and ethanol (90%) were used as controls, alongside untreated specimens. Insecticidal activity screenings were performed in cohorts of 10 larvae with 3 replicates (30 specimens per treatment or control). […] Survival was monitored every 24 h for 5 days. Mortality was calculated based on the ratio of dead to injected specimens.

[5] = system: Pseudomonas aeruginosa DSM 1117; assay: Antibacterial growth assay (OD600); conditions: OD600, medium = 100, MH II broth, 37 °C, peptide 200 µM mixed 50 µL + 50 µL with bacteria, Figure 7: 48 h; for Bacterial growth relative to medium, P. aeruginosa (1117), replicate 1: replicate column 1; for Bacterial growth relative to medium, P. aeruginosa (1117), replicate 2: replicate column 2; for Bacterial growth relative to medium, P. aeruginosa (1117), replicate 3: replicate column 3
[6] = system: Pseudomonas aeruginosa DSM 50071; assay: Antibacterial growth assay (OD600); conditions: OD600, medium = 100, MH II broth, 37 °C, peptide 200 µM mixed 50 µL + 50 µL with bacteria, Figure 7: 48 h; for Bacterial growth relative to medium, P. aeruginosa (50071), replicate 1: replicate column 1; for Bacterial growth relative to medium, P. aeruginosa (50071), replicate 2: replicate column 2; for Bacterial growth relative to medium, P. aeruginosa (50071), replicate 3: replicate column 3
[7] = system: Micrococcus luteus DSM 20030; assay: Antibacterial growth assay (OD600); conditions: for Bacterial growth relative to medium, M. luteus, replicate 1 / Bacterial growth relative to medium, M. luteus, replicate 2 / Bacterial growth relative to medium, M. luteus, replicate 3: OD600, medium = 100, MH II broth, 37 °C, peptide 200 µM mixed 50 µL + 50 µL with bacteria, Figure 7: 48 h; for Bacterial growth relative to medium, M. luteus, replicate 1: replicate column 1; for Bacterial growth relative to medium, M. luteus, replicate 2: replicate column 2; for Bacterial growth relative to medium, M. luteus, replicate 3: replicate column 3; for Antibacterial activity (in words): M. luteus DSM 20030, growth after 48 h
[8] = system: Staphylococcus aureus DSM 2569; assay: Antibacterial growth assay (OD600); conditions: for Bacterial growth relative to medium, S. aureus, replicate 1 / Bacterial growth relative to medium, S. aureus, replicate 2 / Bacterial growth relative to medium, S. aureus, replicate 3: OD600, medium = 100, MH II broth, 37 °C, peptide 200 µM mixed 50 µL + 50 µL with bacteria, Figure 7: 48 h; for Bacterial growth relative to medium, S. aureus, replicate 1: replicate column 1; for Bacterial growth relative to medium, S. aureus, replicate 2: replicate column 2; for Bacterial growth relative to medium, S. aureus, replicate 3: replicate column 3
Experimental: (§1) Cryo-conserved cultures of selected bacterial strains (Table 4) were transferred to Tryptic Soy Agar (TSA) plates (Carl Roth) with a sterile inoculation loop, sealed with Parafilm (BEMIS, Neenah, WI, USA), and incubated for 1–2 days at 37 °C depending on growth. Single colonies were picked and transferred into 2–3 mL of the Mueller–Hinton II (MH II) broth (BD, Heidelberg, Germany). The bacteria were cultivated overnight, subcultured on fresh medium and grown for 3–4 h before testing at 37 °C, with shaking at 180 rpm. We measured the optical density at 600 nm (OD600) of 1 mL of the bacterial suspensions in polystyrene cuvettes (SARSTED, Nümbrecht, Germany) using an Ultrospec 10 spectrophotometer (Biochrome, Cambridge, UK). We then diluted them with the MH II medium to the preferred OD600 (Table 2). The peptides were dissolved in DMSO to generate 10 mmol/L stocks and diluted with the MH II medium to 200 µM before the assay. We used 10 µg/mL (~40 µg/mL for S. epidermidis) gentamicin and colistin (Sigma-Aldrich, Taufkirchen, Germany), DMSO and the medium only as controls. The bacteria were transferred to 96-multiwell plates with a final volume of 100 µL per well (50 µL bacterial suspension, and 50 µL test peptide). The OD600 was measured at 0, 24 and 48 h using a BioTek Eon microplate reader followed by analysis with Gen5 v2.09.

[9] = system: Escherichia coli BL21(DE3); assay: Antibacterial growth assay (OD600); conditions: OD600, medium = 100, MH II broth, 37 °C, peptide 200 µM mixed 50 µL + 50 µL with bacteria, Figure 7: 48 h; for Bacterial growth relative to medium, E. coli, replicate 1: replicate column 1; for Bacterial growth relative to medium, E. coli, replicate 2: replicate column 2; for Bacterial growth relative to medium, E. coli, replicate 3: replicate column 3
Experimental: as §1

[10] = system: Listeria monocytogenes DSM 20600; assay: Antibacterial growth assay (OD600); conditions: OD600, medium = 100, MH II broth, 37 °C, peptide 200 µM mixed 50 µL + 50 µL with bacteria, Figure 7: 48 h; for Bacterial growth relative to medium, L. monocytogenes, replicate 1: replicate column 1; for Bacterial growth relative to medium, L. monocytogenes, replicate 2: replicate column 2; for Bacterial growth relative to medium, L. monocytogenes, replicate 3: replicate column 3
[11] = system: Staphylococcus epidermidis DSM 28319; assay: Antibacterial growth assay (OD600); conditions: for Bacterial growth relative to medium, S. epidermidis, replicate 1 / Bacterial growth relative to medium, S. epidermidis, replicate 2 / Bacterial growth relative to medium, S. epidermidis, replicate 3: OD600, medium = 100, MH II broth, 37 °C, peptide 200 µM mixed 50 µL + 50 µL with bacteria, Figure 7: 48 h; for Bacterial growth relative to medium, S. epidermidis, replicate 1: replicate column 1; for Bacterial growth relative to medium, S. epidermidis, replicate 2: replicate column 2; for Bacterial growth relative to medium, S. epidermidis, replicate 3: replicate column 3
Experimental: as §1

[12] = system: panel of seven bacterial strains; assay: Antibacterial growth assay (OD600), statements on the whole panel; format: cell-based; conditions: growth after 48 h

Row | Compound | Viability of infected cells relative to aprotinin, Replicate 1 [1] | Viability of infected cells relative to aprotinin, Replicate 2 [1] | Viability of infected cells relative to aprotinin, Replicate 3 [1] | Viability of infected cells relative to aprotinin, Replicate 1 [2] | Viability of infected cells relative to aprotinin, Replicate 2 [2] | Viability of infected cells relative to aprotinin, Replicate 3 [2] | Viability of infected cells relative to aprotinin, Replicate 1 [3] | Viability of infected cells relative to aprotinin, Replicate 2 [3] | Viability of infected cells relative to aprotinin, Replicate 3 [3] | Bacterial growth relative to medium, P. aeruginosa (1117), replicate 1 [5] | Bacterial growth relative to medium, P. aeruginosa (1117), replicate 2 [5] | Bacterial growth relative to medium, P. aeruginosa (1117), replicate 3 [5] | Bacterial growth relative to medium, P. aeruginosa (50071), replicate 1 [6] | Bacterial growth relative to medium, P. aeruginosa (50071), replicate 2 [6] | Bacterial growth relative to medium, P. aeruginosa (50071), replicate 3 [6] | Bacterial growth relative to medium, M. luteus, replicate 1 [7] | Bacterial growth relative to medium, M. luteus, replicate 2 [7] | Bacterial growth relative to medium, M. luteus, replicate 3 [7] | Bacterial growth relative to medium, S. aureus, replicate 1 [8] | Bacterial growth relative to medium, S. aureus, replicate 2 [8] | other results
1 | SLLGLLDVVKSKIGQTGLL [LS-AMP-A13] | 0.08268 | 0.06182 | 0.0661 | 0.06606 | 0.03634 | 0.07331 | 0.1762 | 0.09602 | 0.1319 | 81.1135 | 69.8921 | 76.1614 | 102.39 | 115.883 | 93.6736 | 108.132 | 162.387 | 79.7227 | 71.9833 | 81.2949 | Insecticidal effect on larvae (in words) ([4]; 50 ng peptide injected, 3 cohorts of 10 larvae, survival monitored for 5 days): Individual dead insects; Bacterial growth relative to medium, S. aureus, replicate 3 [8]: 106.322; Antibacterial activity (in words) ([8]; S. aureus DSM 2569, growth after 48 h): limited activity; Bacterial growth relative to medium, E. coli, replicate 1 [9]: 109.532; Bacterial growth relative to medium, E. coli, replicate 2 [9]: 109.096; Bacterial growth relative to medium, E. coli, replicate 3 [9]: 112.001; Bacterial growth relative to medium, L. monocytogenes, replicate 1 [10]: 131.861; Bacterial growth relative to medium, L. monocytogenes, replicate 2 [10]: 134.66; Bacterial growth relative to medium, L. monocytogenes, replicate 3 [10]: 121.808; Bacterial growth relative to medium, S. epidermidis, replicate 1 [11]: 109.035; Bacterial growth relative to medium, S. epidermidis, replicate 2 [11]: 130.725; Bacterial growth relative to medium, S. epidermidis, replicate 3 [11]: 108.734; Antibacterial activity (in words) ([11]; S. epidermidis DSM 28319, growth after 48 h): limited activity
2 | SLLGLLDVVKNTVGQTGLL [LS-AMP-A8] | 0.03065 | 0.0169 | 0.06181 | 0.02555 | 0.01502 | 0.01283 | 0.08185 | 0.1031 | 0.0008759 | 76.1322 | 81.7612 | 75.3667 | 99.79 | 113.132 | 91.0686 | 72.2222 | 103.716 | 73.0273 | 67.0732 | 73.4467 | Antibacterial activity over the panel (in words) [12]: inhibited the growth of most of the bacteria except two; Antibacterial activity (in words) [7]: no activity; Bacterial growth relative to medium, S. aureus, replicate 3 [8]: 85.2226; Bacterial growth relative to medium, E. coli, replicate 1 [9]: 91.7388; Bacterial growth relative to medium, E. coli, replicate 2 [9]: 101.043; Bacterial growth relative to medium, E. coli, replicate 3 [9]: 53.4577; Bacterial growth relative to medium, L. monocytogenes, replicate 1 [10]: 57.9391; Bacterial growth relative to medium, L. monocytogenes, replicate 2 [10]: 71.2645; Bacterial growth relative to medium, L. monocytogenes, replicate 3 [10]: 69.2971; Bacterial growth relative to medium, S. epidermidis, replicate 1 [11]: 79.7615; Bacterial growth relative to medium, S. epidermidis, replicate 2 [11]: 73.3026; Bacterial growth relative to medium, S. epidermidis, replicate 3 [11]: 77.5582
3 | CCO [EtOH, ethanol, reference compound] | – | – | – | – | – | – | – | – | – | – | – | – | – | – | – | – | – | – | – | – | Mortality ([4]; ethanol injected as positive control, after 5 days): up to 50%
4 | SLLGLLDVVKNKVGQI [LS-AMP-A5] | 0.1132 | 0.06127 | 0.06301 | 0.0613 | 0.03494 | 0.03984 | 0.17 | 0.06482 | 0.08289 | 63.186 | 51.5489 | 62.0721 | 93.2773 | 109.79 | 85.8852 | 73.1884 | 97.1848 | 36.1549 | 55.1989 | 62.917 | Viability of infected cells relative to aprotinin, Replicate 4 ([3]; […], replicate 4 (additional internal control)): 0.1822; Viability of infected cells relative to aprotinin, Replicate 5 ([3]; […], replicate 5 (additional internal control)): 0.1791; Viability of infected cells relative to aprotinin, Replicate 6 ([3]; […], replicate 6 (additional internal control)): 0.1761; Antibacterial activity over the panel (in words) [12]: inhibited the growth of most of the bacteria except two; Antibacterial activity (in words) [7]: no activity; Bacterial growth relative to medium, S. aureus, replicate 3 [8]: 88.627; Bacterial growth relative to medium, E. coli, replicate 1 [9]: 99.4801; Bacterial growth relative to medium, E. coli, replicate 2 [9]: 69.6408; Bacterial growth relative to medium, E. coli, replicate 3 [9]: 26.4544; Bacterial growth relative to medium, L. monocytogenes, replicate 1 [10]: 122.608; Bacterial growth relative to medium, L. monocytogenes, replicate 2 [10]: 80.283; Bacterial growth relative to medium, L. monocytogenes, replicate 3 [10]: 61.98; Bacterial growth relative to medium, S. epidermidis, replicate 1 [11]: 62.884; Bacterial growth relative to medium, S. epidermidis, replicate 2 [11]: 53.6633; Bacterial growth relative to medium, S. epidermidis, replicate 3 [11]: 71.8202
